According to patent publication US12060347B2 (BRISTOL-MYERS SQUIBB COMPANY, priority 2016, dated 2024):

The compounds below were run against T1, human PAR4 (Homo sapiens, UniProt Q96RI0) (assay: PAR4 FLIPR assay: antagonism of agonist-peptide-induced calcium mobilization in PAR4-expressing HEK293 cells). Conditions: H-Ala-Phe(4-F)-[…]NH2-induced intracellular calcium mobilization, 11-point curves.
T1 construct: expressed in transfected cells; host or cells: HEK293 PAR4 Clone 1.2A (BMS Arctic ID 383940)
T1 sequence (Q96RI0 18-385): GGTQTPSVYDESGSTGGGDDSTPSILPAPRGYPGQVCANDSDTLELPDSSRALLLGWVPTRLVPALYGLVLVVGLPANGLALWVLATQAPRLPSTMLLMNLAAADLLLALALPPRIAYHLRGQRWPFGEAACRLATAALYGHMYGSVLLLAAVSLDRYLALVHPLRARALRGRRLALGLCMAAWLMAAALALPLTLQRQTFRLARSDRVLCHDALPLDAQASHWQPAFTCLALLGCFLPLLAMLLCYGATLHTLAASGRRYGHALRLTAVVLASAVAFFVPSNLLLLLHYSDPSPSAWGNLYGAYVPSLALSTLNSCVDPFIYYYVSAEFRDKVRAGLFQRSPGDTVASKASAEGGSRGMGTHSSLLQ
Format: cell-based

Compound | IC50
COCc1cnc2c(-c3nc4c(C)cc(OCCNC(=O)OCc5ccccc5)cc4s3)cc(C)cc2n1 [Example 92, Benzyl 2-(2-(2-(methoxymethyl)-7-methylquinoxalin-5-yl)-4-methylbenzo[d]thiazol-6-yloxy)ethylcarbamate] | 2 nM
COCc1cnc2c(-c3nc4c(Cl)cc(OC)cc4s3)cc(C)cc2n1 [Example 93, 4-chloro-6-methoxy-2-(2-(methoxymethyl)-7-methylquinoxalin-5-yl)benzo[d]thiazole] | 0.3 nM
COCc1cnc2c(-c3cc4cc(OC)ccc4o3)cc(C)cc2n1 [Example 94, 5-(5-methoxybenzofuran-2-yl)-2-(methoxymethyl)-7-methylquinoxaline] | 1.4 nM
COCc1cnc2c(-c3nc4c(C)cc(OCCNS(=O)(=O)c5ccccc5)cc4s3)cc(C)cc2n1 [Example 95, N-(2-((2-(2-(methoxymethyl)-7-methylquinoxalin-5-yl)-4-methylbenzo[d]thiazol-6-yl)oxy)ethyl)benzenesulfonamide] | 0.8 nM
COCc1cnc2c(-c3nc4c(C)cc(OCCNS(=O)(=O)c5ccccc5F)cc4s3)cc(C)cc2n1 [Example 96, 2-fluoro N-(2-(2-(2-(methoxymethyl)-7-methylquinoxalin-5-yl)-4-methylbenzo[d]thiazol-6-yloxy)ethyl)benzenesulfonamide] | 1.1 nM
COCc1cnc2c(-c3nc4c(C)cc(OCCNS(=O)(=O)c5cccc(F)c5)cc4s3)cc(C)cc2n1 [Example 97, 3-fluoro N-(2-(2-(2-(methoxymethyl)-7-methylquinoxalin-5-yl)-4-methylbenzo[d]thiazol-6-yloxy)ethyl)benzenesulfonamide] | 1.7 nM
COCc1cnc2c(-c3nc4c(Cl)cc(OCCNS(C)(=O)=O)cc4s3)cc(C)cc2n1 [Example 98, N-(2-(4-chloro-2-(2-(methoxymethyl)-7-methylquinoxalin-5-yl)benzo[d]thiazol-6-yloxy)ethyl)methanesulfonamide] | 0.3 nM
COCc1cnc2c(-c3nc4c(Cl)cc(OCCNS(=O)(=O)c5ccccc5)cc4s3)cc(C)cc2n1 [Example 99, N-(2-(4-chloro-2-(2-(methoxymethyl)-7-methylquinoxalin-5-yl)benzo[d]thiazol-6-yloxy)ethyl)benzenesulfonamide] | 0.6 nM
COCc1cnc2c(-c3nc4c(Cl)cc(OCCNS(=O)(=O)c5ccccc5F)cc4s3)cc(C)cc2n1 [Example 100, N-(2-(4-chloro-2-(2-(methoxymethyl)-7-methylquinoxalin-5-yl)benzo[d]thiazol-6-yloxy)ethyl)-2-fluorobenzenesulfonamide] | 0.5 nM
COCc1cnc2c(-c3nc4c(Cl)cc(OCCNS(=O)(=O)c5ccc(F)cc5)cc4s3)cc(C)cc2n1 [Example 101, N-(2-(4-chloro-2-(2-(methoxymethyl)-7-methylquinoxalin-5-yl)benzo[d]thiazol-6-yloxy)ethyl)-4-fluorobenzenesulfonamide] | 0.2 nM
COCc1cnc2c(-c3nc4c(Cl)cc(OCCNS(=O)(=O)c5cccc(F)c5)cc4s3)cc(C)cc2n1 [Example 102, N-(2-(4-chloro-2-(2-(methoxymethyl)-7-methylquinoxalin-5-yl)benzo[d]thiazol-6-yloxy)ethyl)-3-fluorobenzenesulfonamide] | 0.9 nM
COCc1cnc2c(-c3nc4c(C#N)cc(OC)cc4s3)cc(C)cc2n1 [Example 103, 6-methoxy-2-(2-(methoxymethyl)-7-methylquinoxalin-5-yl)benzo[d]thiazole-4-carbonitrile] | 2.5 nM
COCc1cnc2c(-c3nc4c(C5CC5)cc(OCCNS(=O)(=O)c5ccccc5)cc4s3)cc(C)cc2n1 [Example 104, N-(2-(4-cyclopropyl-2-(2-(methoxymethyl)-7-methylquinoxalin-5-yl)benzo[d]thiazol-6-yloxy)ethyl)benzenesulfonamide] | 1.7 nM
COCc1cnc2c(-c3nc4c(C5CC5)cc(OCCNS(=O)(=O)c5ccc(F)cc5)cc4s3)cc(C)cc2n1 [Example 105, N-(2-(4-cyclopropyl-2-(2-(methoxymethyl)-7-methylquinoxalin-5-yl)benzo[d]thiazol-6-yloxy)ethyl)-4-fluorobenzenesulfonamide] | 8.1 nM

Next, values leading:

IC50 | Compound
1.6 nM | COCc1cnc2c(-c3nc4ccc(OCCNS(=O)(=O)c5ccccc5)cc4s3)cc(C)cc2n1 [Example 106, N-(2-(2-(2-(methoxymethyl)-7-methylquinoxalin-5-yl)benzo[d]thiazol-6-yloxy)ethyl)benzenesulfonamide]
2.8 nM | COCc1cnc2c(-c3nc4ccc(OCCNS(=O)(=O)c5ccc(F)cc5)cc4s3)cc(C)cc2n1 [Example 107, 4-fluoro N-(2-(2-(2-(methoxymethyl)-7-methylquinoxalin-5-yl)benzo[d]thiazol-6-yloxy)ethyl)benzenesulfonamide]
1100 nM | Cc1cc(-c2nc3c(C)cc(OCCNS(=O)(=O)c4ccc(F)cc4)cc3s2)c2ncc(C(C)F)nc2c1 (stereo not drawn) [Example 108, 4-fluoro N-(2-(2-(2-(1 fluoroethyl)-7-methylquinoxalin-5-yl)-4-methylbenzo[d]thiazol-6-yloxy)ethyl)benzenesulfonamide]
8.3 nM | COCc1cnc2c(-c3nc4c(C#N)cc(OCCNS(=O)(=O)c5ccc(F)cc5)cc4s3)cc(C)cc2n1 [Example 109, N-(2-(4-cyano-2-(2-(methoxymethyl)-7-methylquinoxalin-5-yl)benzo[d]thiazol-6-yloxy)ethyl)-4-fluorobenzenesulfonamide]
12 nM | COc1cnc2c(-c3nc4c(C)cc(OCCOC(=O)Nc5ccccc5)cc4s3)cc(C)cc2n1 [Example 110, 2-(2-(2-methoxy-7-methylquinoxalin-5-yl)-4-methylbenzo[d]thiazol-6-yloxy)ethyl phenylcarbamate]
1.1 nM | COc1cnc2c(-c3nc4c(C)cc(OCCOC(=O)Nc5cccnc5)cc4s3)cc(C)cc2n1 [Example 111, 2-(2-(2-methoxy-7-methylquinoxalin-5-yl)-4-methylbenzo[d]thiazol-6-yloxy)ethyl pyridin-3-ylcarbamate]
2 nM | COc1ccc(NC(=O)OCCOc2cc(C)c3nc(-c4cc(C)cc5nc(OC)cnc45)sc3c2)cn1 [Example 112, 2-(2-(2-methoxy-7-methylquinoxalin-5-yl)-4-methylbenzo[d]thiazol-6-yloxy)ethyl 6-methoxypyridin-3-ylcarbamate]
3 nM | COc1cnc2c(-c3nc4c(C)cc(OCCOC(=O)Nc5ccncc5)cc4s3)cc(C)cc2n1 [Example 113, 2-(2-(2-methoxy-7-methylquinoxalin-5-yl)-4-methylbenzo[d]thiazol-6-yloxy)ethyl pyridin-4-ylcarbamate]
1600 nM | Cc1cc(-c2nc3c(C)cc(OCCNS(=O)(=O)c4ccc(F)cc4)cc3s2)c2ncc(COC(F)F)nc2c1 [Example 114, N-(2-(2-(2-((difluoromethoxy)methyl)-7-methylquinoxalin-5-yl)-4-methylbenzo[d]thiazol-6-yloxy)ethyl)-4-fluorobenzenesulfonamide]
1.3 nM | COc1ccc(NC(=O)OCCOc2ccc3nc(-c4cc(C)cc5nc(OC)cnc45)sc3c2)cn1 [Example 115, 2-(2-(2-methoxy-7-methylquinoxalin-5-yl)benzo[d]thiazol-6-yloxy)ethyl 6-methoxypyridin-3-ylcarbamate]
1.4 nM | COc1cnc2c(-c3nc4c(C)cc(OCCOC(=O)Nc5cncc(C#N)c5)cc4s3)cc(C)cc2n1 [Example 116, 2-(2-(2-methoxy-7-methylquinoxalin-5-yl)-4-methylbenzo[d]thiazol-6-yloxy)ethyl 5-cyanopyridin-3-ylcarbamate]
0.5 nM | COc1cnc2c(-c3nc4c(C)cc(OCCOC(=O)Nc5ccc(C#N)nc5)cc4s3)cc(C)cc2n1 [Example 117, 2-((2-(2-methoxy-7-methylquinoxalin-5-yl)-4-methylbenzo[d]thiazol-6-yl)oxy)ethyl (6-cyanopyridin-3-yl)carbamate]
2.2 nM | COc1cnc2c(-c3nc4ccc(OCCOC(=O)Nc5cccc(C#N)c5)cc4s3)cc(C)cc2n1 [Example 118, 2-((2-(2-methoxy-7-methylquinoxalin-5-yl)benzo[d]thiazol-6-yl)oxy)ethyl (3-cyanophenyl)carbamate]
16 nM | COc1cnc2c(-c3nc4c(C)cc(OCCOC(=O)Nc5cnc(Cl)nc5)cc4s3)cc(C)cc2n1 [Example 119, 2-((2-(2-methoxy-7-methylquinoxalin-5-yl)-4-methylbenzo[d]thiazol-6-yl)oxy)ethyl (2-chloropyrimidin-5-yl)carbamate]
28 nM | COc1cnc2c(-c3cc4cc(OC)c(F)cc4o3)cc(C)cc2n1 [Example 120, 5-(6-fluoro-5-methoxybenzofuran-2-yl)-2-methoxy-7-methylquinoxaline]
0.7 nM | COCc1cnc2c(-c3cc4cc(OC)c(F)c(Cl)c4o3)cc(C)cc2n1 [Example 121, 5-(7-chloro-6-fluoro-5-methoxybenzofuran-2-yl)-2-(methoxymethyl)-7-methylquinoxaline]
3.9 nM | COc1cnc2c(-c3cc4cc(OC)c(F)c(Cl)c4o3)cc(C)cc2n1 [Example 122, 5-(7-chloro-6-fluoro-5-methoxybenzofuran-2-yl)-2-methoxy-7-methylquinoxaline]
1.5 nM | COc1cnc2c(-c3cc4cc(OCCOC(=O)Nc5ccnc(C)c5)c(F)cc4o3)cc(C)cc2n1 [Example 123, 2-((6-fluoro-2-(2-methoxy-7-methylquinoxalin-5-yl)benzofuran-5-yl)oxy)ethyl (2-methylpyridin-4-yl)carbamate]
1.8 nM | COc1cnc2c(-c3cc4cc(OC)c(F)c(Cl)c4o3)cc(CO)cc2n1 [Example 124, (8-(7-chloro-6-fluoro-5-methoxybenzofuran-2-yl)-3-methoxyquinoxalin-6-yl)methanol]
